Structures are written as SMILES.

Consider `CCc1[nH]n(C2CCCC2)c2nc(-c3ccnc4ccccc34)nc(=O)c1-2`, for which the melting point is 205 to 206 °C.

Regarding `CCC(CC)Oc1nc(C)nc(Nc2c(C)cc(C)cc2C)c1[N+](=O)[O-]`, the melting point is 112 to 113 °C.

Regarding `COc1cc(Nc2nccc(S(=O)(=O)c3ccccc3)n2)cc(OC)c1OC`, the melting point turned out to be 110 °C. Take `CCc1nc(/C=C/c2cn(-c3ccccc3)nc2OCc2ccc(OCc3nc(-c4ccc(CC(=O)O)cc4)oc3C)c(OC)c2)cs1`: the melting point is 123 to 124 °C. The value for `O=C(NC12CC3CC(CC(C3)C1)C2)c1cc(O)c(O)c([N+](=O)[O-])c1` was 207 to 208 °C; that for `COc1ccccc1OCCOS(N)(=O)=O` was 81.5 to 83 °C. With `CCCC(=O)Nc1ccc(C(=O)Nc2ccc3cc(CN4CCCC4)cnc3c2C)cc1` the figure was 192 to 194 °C; with `Cc1cccc(C(=O)C(C)(C)C(C)(C)[N+](=O)[O-])c1`, 50 to 51 °C; with `COc1ccc(S(=O)(=O)Cl)c2c3ccccc3n(C=O)c12`, 201 to 203 °C.

Take `COc1ccc(C2OC2C(N)=O)cc1` (configuration not stated): the melting point lay in the range of 142 to 144 °C. With `CNC(=O)c1ccccc1-c1cc(-c2ccccc2)no1` the figure was 119 to 121 °C; with `O=C1C(Cl)=CC(=NS(=O)(=O)c2cccs2)c2ccccc21`, 167 to 169 °C; with `COC(=O)Cn1cc2c(c1C)-c1ccc(Cl)cc1C(c1ccccc1Cl)=NC2`, 174 to 176 °C.

The compound `CC(O)(CCN1C(=O)c2ccccc2C1=O)c1ccc(-c2ccc(Cl)cc2)cc1` (configuration not stated) gave a melting point of 177 to 179 °C. With `COC(=O)NCCOc1cc(-c2ccccc2)on1` the figure was 95 to 96 °C; with `CCCCCCCCCCc1cnc(-c2ccc3c(c2)C(=O)C(CCCCCCCC)C3)nc1` (configuration not stated), 83 °C. The value for `CCOC(=O)c1cc2c(C)ccc3c2n1CCO3` was 101 to 102 °C; that for `CC(=O)c1ccc(C(C)Oc2cncc(C(=O)Nc3ccc(C#N)cc3)c2)cc1` (configuration not stated) was 181 to 183 °C.

Compound `CCn1c(Nc2cc(Cl)ccc2Cl)nc(C(F)(F)F)cc1=O` gave a melting point of 167 to 168 °C. The value for `Cc1cc2[nH]c3ccccc3n2n1` was 250 to 252 °C.

In turn, `O=C(O)/C=C/c1ccc(OCC2CCCO2)cc1Oc1ncc(C(F)(F)F)cc1Cl` (configuration not stated) had a melting point of 106 to 109 °C. With `O=C(CN1CCN(CC(=O)N2CCC3(CC2)Cn2cc([N+](=O)[O-])nc2O3)CC1)Nc1ccc(C(F)(F)F)cc1` the figure was 133 to 135 °C; with `CC(=O)NCC1CN(c2ccc(N3CCN(c4nnc(C(N)=O)s4)C(F)C3)cc2)C(=O)O1` (configuration not stated), 230 to 232 °C; with `COc1c(C)c(Cc2ccc(Cl)cc2)c(OC)c2ccccc12`, 101 to 102 °C. The value for `Cc1c(NC(=O)c2ccc(-c3ccc(Cl)cc3Cl)cc2F)ccc2cc(CN3CCCC3)cnc12` was 162 to 163 °C; that for `COC(OC)[C@@H]1CCCN1C(=O)[C@@H]1CCCN1C(=O)C[C@H]1CCc2ccccc2C1` was 103 to 106 °C.

The compound `CCOc1nn(-c2c(Cl)cc(C(F)(F)F)cc2Cl)c(N)c1-c1cccc(C(F)(F)F)c1` registered a melting point of 77 to 78 °C. With `CCOC(OCC)c1cc(NC(c2ccccc2)(c2ccccc2)c2ccccc2)c(F)c(C2CCC2)n1` the figure was 121 to 122 °C; with `CCCCCCCCCCCCCCCC1Cc2cc(C(=O)O)ccc2N1` (racemic), 102 to 104 °C; with `OCc1ccccc1SCc1cc2c(cc1O)CCCO2`, 140 to 141 °C.

Take `CS(=O)(=O)c1ccc(-c2cnn(Cc3ccccc3)c(=O)c2Oc2ccc(F)cc2)cc1`: the melting point fell in the range of 188 to 190 °C.

`CSc1nn2c(N3CCN(C)CC3)cc(Cl)nc2c1S(=O)(=O)c1ccccc1` returned a melting point above 230 °C. Compound `COc1ccc2[nH]c3c(c2c1)C[C@@]1(C)C(=O)N(CCCN(C)C)C(=O)N1[C@@H]3c1cccc(O)c1` (racemic) registered a melting point of 228 to 231 °C. `CNC(=O)n1nc(Oc2c(F)cc(C(F)(F)F)cc2Cl)cc1C` returned a melting point of 87 to 88 °C. With `COC(=O)Cc1cc2c(s1)-n1c(C)nnc1C(C)N=C2c1ccccc1Cl` (configuration not stated) the figure was 105 to 106 °C; with `Cc1ccc(N2CC(COc3ccc(C(=O)O)cc3)CC2=O)cc1` (configuration not stated), 212 to 213 °C. Regarding `CCOC(=O)c1cnn(-c2ccc(OCC(CC)CC)c(C#N)c2)c1`, the melting point lay within 114 to 115 °C. With `CC(=O)NNC(=N)CCCCn1cnc(NC(N)=NCC(F)(F)F)n1` the figure was 157 to 159 °C; with `CSc1ccc(C)c2onc(OCCNC(=O)OC(C)(C)C)c12`, 85 to 86 °C; with `O=C(CCCCCl)c1ccc2c(c1)Cc1cc(C(=O)CCCCCl)ccc1-2`, 124 to 125 °C. With `CN1C(=O)C(C(=O)Nc2ccc(F)cc2)S(=O)(=O)c2ccc(Cl)cc21` (configuration not stated) the figure was 234 to 236 °C; with `COc1ccc2nccc(CCC[C@@H]3CCN(CCCc4cccs4)C[C@@H]3C(=O)O)c2c1`, 60 °C; with `CNC(=O)c1cc(Oc2ccc(N)c(F)c2)ccn1`, 140 to 141 °C. For the compound `C=CCc1cc(-c2ccc(F)cc2)cc(C(=O)O)c1O`, the melting point lay in the range of 170 to 172 °C. The value for `CCOC(=O)COc1cc(F)ccc1[N+](=O)[O-]` was 37 to 39 °C. For `COc1cnc(NS(=O)(=O)c2cccc(Cl)c2Cl)c(OC)n1`, the melting point was in the range of 138 to 139 °C. With `COC(=O)C(=C/c1ccccc1)/C(=C\c1cc(OC)c(OC)c(OC)c1)C(N)=O` the figure was 121 to 122 °C. With `Cn1nc(C(F)(F)F)n(-c2ccc(I)cc2Cl)c1=S` the figure was 117 to 119 °C. The value for `C=CS(=O)(=O)N1CCC[C@H]1C(=O)OC(C)(C)C` was 84 to 87 °C. The compound `O=[N+]([O-])c1ccccc1-c1ccc(Br)cc1[N+](=O)[O-]` showed a melting point of 145 to 147 °C. With `COc1cc2ccccc2cc1N(C)C(=O)N1CCN(c2cc(F)cc(F)c2)CC1` the figure was 115 to 117 °C.

The compound `CCOc1nn(Cc2ccc(OCc3cn(-c4ccccn4)nc3C)cc2)cc1CCC(=O)O` showed a melting point of 126 to 127 °C. With `O=C(c1ccc([N+](=O)[O-])cc1)N1CCc2cc(S(=O)(=O)N3CC(c4ccccc4)NC3=O)ccc21` (configuration not stated) the figure was 145 °C; with `CCCc1cc(C=O)c(O)cc1O`, 92.8 to 93.6 °C. The value for `CN1C(=O)C2=C(c3ccc([N+](=O)[O-])cc3)OC(=O)C2=C1c1ccccc1` was 253 to 255 °C. In turn, `CCOCc1nc2c(N)nc3ccccc3c2n1CCCCC(N)=O` displayed a melting point of 198 to 200 °C. Compound `CCOC(=O)c1c[nH]c2c(=O)ccc(NC(=O)CC)cc2c1=O` yielded a melting point above 250 °C. In the case of `CC(=O)NCCCn1cc(C2=C(c3cn(C)c4ccccc34)C(=O)NC2=O)c2ccccc21`, the melting point was 132 to 136 °C. With `CC(=O)OC1CSC(Oc2cccc(-c3cnn(C)c3)c2)C(OC(C)=O)C1OC(C)=O` (configuration not stated) the figure was 140 °C; with `N#CC(Cc1c[nH]cn1)(c1ccc(Cl)cc1)c1cccc(Cl)c1` (configuration not stated), 138 to 140 °C. With `COc1cc(C(C)=O)ccc1OCCN1CCC(c2noc3cc(F)ccc23)CC1` the figure was 132 to 134 °C; with `NC(=O)OCC(Cc1ccccc1)NC(=O)C1CCN(c2c(Cl)cncc2Cl)CC1` (configuration not stated), 147 to 149 °C; with `CCCCCCCCCCCC(CC(=O)O)OC(C)=O` (racemic), 37 °C. With `COc1cccc2c1CC(C(=O)O)N2S(=O)(=O)c1ccc(-c2ccc(F)cc2Cl)cc1` (configuration not stated) the figure was 137 to 138 °C. On to `Cn1nnnc1SCC(=O)Nc1ccc(C2CCCCC2)cc1`, for which the melting point lay in the range of 204 to 205 °C. In the case of `Cc1cc(Oc2ccc(C(F)(F)F)cc2[N+](=O)[O-])n[nH]1`, the melting point lay within 89 to 91 °C. The value for `CCC(=O)C1C(=O)CC(C#N)CC1=O` (configuration not stated) was 70 to 74 °C; that for `O=c1oc(-c2ccsc2)cc(O)c1SCc1ccccc1` was 150 to 151 °C; that for `O=C(c1ccccc1)c1cccnc1-c1nc(NCc2ccc(Cl)cc2)c2ccccc2n1` was 147 to 149 °C.

`COc1cc(OC)nc(Oc2cccc3c2C(=O)OC3C#N)n1` (configuration not stated) gave a melting point of 157 to 159 °C. Compound `Nc1n[nH]c2ccc(OCc3ccccc3)cc12` returned a melting point of 193 to 195 °C. The value for `CCCCCCc1c(C(C)C)nc(C(C)C)c(CO)c1-c1ccc(F)cc1` was 93 to 95 °C. With `CC1(C)OC(=O)N(c2cccc(C#CC#N)c2)c2ccccc21` the figure was 212 to 213 °C; with `CSc1nc(C)ccc1NC(=O)CCCCCCCCSc1nc2ccccc2o1`, 99 to 100 °C; with `O=C1OC(CN2CCC(n3c(=O)[nH]c4ccccc43)CC2)CN1c1ccccc1` (configuration not stated), 210 to 212 °C. With `COc1ccc(C(Sc2ccc3ccccc3c2N)C(O)C(=O)O)cc1` (configuration not stated) the figure was 160 to 161 °C; with `CCOC(c1cccc(OCc2nc(-c3ccccc3)oc2C)c1)c1ccc(OC)cc1OCC(=O)O` (configuration not stated), 129 to 130 °C. Compound `O=C(O)C1=Cc2cc(CO)ccc2OC1C(F)(F)F` (configuration not stated) returned a melting point of 178 to 181 °C. The value for `Cc1cnc2c(c1)C(=O)c1cc(-c3ccccc3)c(=O)[nH]c1C2=O` was 275 °C.

Compound `CC(C)NNC(=O)NC1c2ccccc2Oc2ccccc21` registered a melting point of 162 °C. The value for `O=C(O)Cn1c(=O)c(=O)[nH]c2ccc(Cl)cc21` was above 285 °C; that for `C[C@@H](n1cnc2ccc(F)cc2c1=O)[C@](O)(Cn1cncn1)c1ccc(F)cc1F` was 192 to 193 °C.

Compound `CC1CCNC1=C[N+](=O)[O-]` (configuration not stated) yielded a melting point of 47 to 47.5 °C. The value for `O=c1[nH]c2ccccc2n1-c1cc(Cl)ccc1O` was 248 to 250 °C; that for `O=[N+]([O-])c1cccnc1Nc1cc(F)ccc1F` was 150 to 152 °C; that for `Cc1cccc(C)c1NC1=NCCN1` was 155 to 156 °C. With `O=C1CC(c2cccc(-n3ccnc3)c2)=Nc2cc(N3CCC(OCCO)CC3)c(-c3ccc(F)cc3)cc2N1` the figure was 225 to 227 °C.
